Experimental data taken from US12728181B2, “Solution blow spun polymer constructs, compositions and methods of fabrications and uses relating thereto” (University of Maryland, College Park, priority 2019, dated 2026).

What was measured:
[1] = system: small model bacterial inoculation; settings: cited from earlier work
keratinocytes = settings: cited from earlier work
fibroblasts = settings: cited from earlier work
mouse = settings: in vivo, ip
Text: To determine the potential immune response to the fast-degrading components of the PSTA, we employed an intraperitoneal space implantation mouse model used to evaluate fibrosis (Doloff, J. C. et al. (2017) Colony Stimulating Factor-1 Receptor Is a Central Component of the Foreign Body Response to Biomaterial Implants in Rodents and Non-Human Primates, Nat. Mater. 16(6):671).

| Compound | minimum inhibitory concentration (MIC) ([1]; inoculation of the same size) | minimum bactericidal concentration (MBC) ([1]; small model bacterial inoculation) | 24 hour cytotoxic limit (KCC) (keratinocytes) [µM] | 24 hour cytotoxic limit (FCC) (fibroblasts) | fibrotic adhesions to the fat pads (mouse) |
| --- | --- | --- | --- | --- | --- |
| [Ag+] [Ag^+] | about 5 μM | approximately 20 μM | 500 | approximately 50 μM |  |
| poly(lactide-co-caprolactone) [LMW PLCL] |  |  |  |  | no adhesions to the fat pad |
